Data as given in ChEMBL document CHEMBL4725292 (J Med Chem, 2020).
Active and inactive are the calls of the source. The rule behind the calls is not given here.

How the values were obtained:
[1] = target: Bromodomain testis-specific protein (Homo sapiens, UniProt Q58F21); test: Binding affinity to human partial length BRDT bromodomain 2 (K250 to E382 residues) expressed in bacterial expression system by bromoscan assay
[2] = target: T1, Transcription intermediary factor 1-alpha (Homo sapiens, UniProt O15164); test: Binding affinity to human partial length TRIM24 (P790 to P977 residues) expressed in bacterial expression system by BROMOscan assay
T1 sequence (O15164 whole entry): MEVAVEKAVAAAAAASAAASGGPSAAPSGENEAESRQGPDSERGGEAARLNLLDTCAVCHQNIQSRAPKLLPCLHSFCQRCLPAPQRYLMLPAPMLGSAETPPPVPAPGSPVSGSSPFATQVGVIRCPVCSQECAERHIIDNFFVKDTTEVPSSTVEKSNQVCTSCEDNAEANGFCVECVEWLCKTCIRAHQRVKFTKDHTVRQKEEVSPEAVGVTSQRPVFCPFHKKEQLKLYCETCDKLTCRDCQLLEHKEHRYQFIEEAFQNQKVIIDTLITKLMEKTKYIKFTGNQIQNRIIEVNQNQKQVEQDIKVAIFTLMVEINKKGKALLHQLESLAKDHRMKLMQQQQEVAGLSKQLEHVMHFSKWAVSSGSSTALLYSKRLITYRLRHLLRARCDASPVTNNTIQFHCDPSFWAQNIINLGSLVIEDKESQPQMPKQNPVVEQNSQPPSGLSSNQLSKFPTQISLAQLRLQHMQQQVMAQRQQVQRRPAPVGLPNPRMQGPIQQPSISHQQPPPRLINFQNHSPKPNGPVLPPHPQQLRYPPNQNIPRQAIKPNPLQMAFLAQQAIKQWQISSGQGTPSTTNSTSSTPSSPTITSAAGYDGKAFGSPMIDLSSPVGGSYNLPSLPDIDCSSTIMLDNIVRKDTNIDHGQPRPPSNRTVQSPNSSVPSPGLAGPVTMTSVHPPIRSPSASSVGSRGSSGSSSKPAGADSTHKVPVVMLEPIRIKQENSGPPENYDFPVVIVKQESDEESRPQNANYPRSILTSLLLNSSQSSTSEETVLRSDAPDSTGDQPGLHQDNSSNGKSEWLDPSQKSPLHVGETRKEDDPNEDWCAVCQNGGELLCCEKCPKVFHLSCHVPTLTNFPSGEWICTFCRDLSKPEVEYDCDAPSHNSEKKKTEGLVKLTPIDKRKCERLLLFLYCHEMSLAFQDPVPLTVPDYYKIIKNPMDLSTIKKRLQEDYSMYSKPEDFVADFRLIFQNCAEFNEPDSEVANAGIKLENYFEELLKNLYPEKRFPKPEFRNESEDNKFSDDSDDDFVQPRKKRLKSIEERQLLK

B cell = test: Downregulation of IL-17F secretion in human B cells cocultured with human PBMC at 0.37 to 10 uM preincubated for 1 hr followed by anti-IgM and TCR stimulation and measured after 84 hrs by ELISA; assay type: functional, cell-based; settings: dose microM 0.37-10, time 1.0 hrs
THP-1 = test: Antiproliferative activity against human THP-1 cells after 72 hrs by cell titer glo assay; assay type: functional, cell-based; settings: THP-1, 72 h
[3] = target: Bromodomain-containing protein 2 (Homo sapiens, UniProt P25440); test: Binding affinity to human partial length BRD2 bromodomain 1 long isoform (K71 to N194 residues) expressed in bacterial expression system by BROMOscan assay
Sequence of Bromodomain-containing protein 2 (P25440 whole entry, the tested form may be a part, canonical isoform): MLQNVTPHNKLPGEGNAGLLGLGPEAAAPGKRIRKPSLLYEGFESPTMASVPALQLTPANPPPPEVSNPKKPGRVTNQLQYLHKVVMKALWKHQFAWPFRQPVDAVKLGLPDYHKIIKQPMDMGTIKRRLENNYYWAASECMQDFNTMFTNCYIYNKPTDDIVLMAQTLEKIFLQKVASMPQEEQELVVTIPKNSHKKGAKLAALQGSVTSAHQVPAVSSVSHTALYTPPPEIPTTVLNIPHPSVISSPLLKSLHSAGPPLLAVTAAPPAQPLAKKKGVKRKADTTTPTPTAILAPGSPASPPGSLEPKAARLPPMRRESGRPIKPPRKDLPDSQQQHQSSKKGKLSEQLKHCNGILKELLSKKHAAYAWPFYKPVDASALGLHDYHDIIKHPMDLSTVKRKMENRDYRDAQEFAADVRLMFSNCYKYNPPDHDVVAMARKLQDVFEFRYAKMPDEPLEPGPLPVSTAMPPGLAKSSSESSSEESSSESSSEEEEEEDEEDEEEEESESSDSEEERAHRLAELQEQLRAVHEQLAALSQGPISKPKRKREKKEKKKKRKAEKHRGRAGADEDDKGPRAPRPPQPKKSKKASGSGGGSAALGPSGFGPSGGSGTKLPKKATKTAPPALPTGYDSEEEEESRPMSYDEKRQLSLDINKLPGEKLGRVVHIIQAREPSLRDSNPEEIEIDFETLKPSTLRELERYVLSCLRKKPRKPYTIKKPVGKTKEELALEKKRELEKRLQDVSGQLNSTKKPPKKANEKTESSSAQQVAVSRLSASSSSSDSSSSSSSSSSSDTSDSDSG

[4] = target: T2, ATPase family AAA domain-containing protein 2 (Homo sapiens, UniProt Q6PL18); test: Binding affinity to human partial length ATAD2A (Q981 to R1108 residues) expressed in bacterial expression system by BROMOscan assay
T2 sequence (Q6PL18 whole entry): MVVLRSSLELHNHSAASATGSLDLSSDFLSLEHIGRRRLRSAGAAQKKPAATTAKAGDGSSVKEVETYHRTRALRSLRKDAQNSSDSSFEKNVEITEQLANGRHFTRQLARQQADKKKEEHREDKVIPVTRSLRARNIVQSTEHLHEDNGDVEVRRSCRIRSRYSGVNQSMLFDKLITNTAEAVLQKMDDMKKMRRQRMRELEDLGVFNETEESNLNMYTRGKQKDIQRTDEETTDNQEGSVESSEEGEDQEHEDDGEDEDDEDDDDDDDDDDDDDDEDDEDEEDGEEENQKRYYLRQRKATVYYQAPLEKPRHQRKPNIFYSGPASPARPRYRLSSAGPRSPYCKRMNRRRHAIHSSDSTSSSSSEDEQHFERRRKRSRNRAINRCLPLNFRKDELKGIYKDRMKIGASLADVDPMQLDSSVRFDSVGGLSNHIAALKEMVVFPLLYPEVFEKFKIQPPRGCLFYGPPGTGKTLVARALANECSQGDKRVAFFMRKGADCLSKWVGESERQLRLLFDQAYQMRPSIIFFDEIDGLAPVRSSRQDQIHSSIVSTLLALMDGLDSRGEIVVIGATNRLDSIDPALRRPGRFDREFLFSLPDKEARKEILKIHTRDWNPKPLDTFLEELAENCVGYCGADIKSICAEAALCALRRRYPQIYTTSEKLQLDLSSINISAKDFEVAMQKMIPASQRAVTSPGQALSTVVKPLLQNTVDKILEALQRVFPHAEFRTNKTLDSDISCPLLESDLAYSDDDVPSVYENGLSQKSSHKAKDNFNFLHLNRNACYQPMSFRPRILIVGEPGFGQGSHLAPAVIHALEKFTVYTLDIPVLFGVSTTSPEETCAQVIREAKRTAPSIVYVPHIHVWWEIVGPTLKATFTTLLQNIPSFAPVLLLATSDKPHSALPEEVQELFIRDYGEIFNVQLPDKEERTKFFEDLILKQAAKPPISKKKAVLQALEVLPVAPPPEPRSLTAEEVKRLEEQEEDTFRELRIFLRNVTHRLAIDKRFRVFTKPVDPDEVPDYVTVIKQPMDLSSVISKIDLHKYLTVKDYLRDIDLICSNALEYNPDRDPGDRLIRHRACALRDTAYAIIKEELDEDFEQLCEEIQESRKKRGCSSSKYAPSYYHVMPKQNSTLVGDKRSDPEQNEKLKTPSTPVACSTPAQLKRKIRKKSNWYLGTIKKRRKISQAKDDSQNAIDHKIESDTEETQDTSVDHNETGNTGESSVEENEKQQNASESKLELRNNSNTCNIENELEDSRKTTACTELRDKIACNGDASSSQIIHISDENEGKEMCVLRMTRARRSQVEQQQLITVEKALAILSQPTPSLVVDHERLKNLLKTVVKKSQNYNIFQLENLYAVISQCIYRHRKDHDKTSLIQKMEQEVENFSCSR

[5] = target: Transcription initiation factor TFIID subunit 1 (Homo sapiens, UniProt P21675); test: Binding affinity to human partial length TAF1 bromodomain 2 (D1521 to D1656 residues) expressed in bacterial expression system by BROMOscan assay
Sequence of Transcription initiation factor TFIID subunit 1 (P21675 whole entry, the tested form may be a part): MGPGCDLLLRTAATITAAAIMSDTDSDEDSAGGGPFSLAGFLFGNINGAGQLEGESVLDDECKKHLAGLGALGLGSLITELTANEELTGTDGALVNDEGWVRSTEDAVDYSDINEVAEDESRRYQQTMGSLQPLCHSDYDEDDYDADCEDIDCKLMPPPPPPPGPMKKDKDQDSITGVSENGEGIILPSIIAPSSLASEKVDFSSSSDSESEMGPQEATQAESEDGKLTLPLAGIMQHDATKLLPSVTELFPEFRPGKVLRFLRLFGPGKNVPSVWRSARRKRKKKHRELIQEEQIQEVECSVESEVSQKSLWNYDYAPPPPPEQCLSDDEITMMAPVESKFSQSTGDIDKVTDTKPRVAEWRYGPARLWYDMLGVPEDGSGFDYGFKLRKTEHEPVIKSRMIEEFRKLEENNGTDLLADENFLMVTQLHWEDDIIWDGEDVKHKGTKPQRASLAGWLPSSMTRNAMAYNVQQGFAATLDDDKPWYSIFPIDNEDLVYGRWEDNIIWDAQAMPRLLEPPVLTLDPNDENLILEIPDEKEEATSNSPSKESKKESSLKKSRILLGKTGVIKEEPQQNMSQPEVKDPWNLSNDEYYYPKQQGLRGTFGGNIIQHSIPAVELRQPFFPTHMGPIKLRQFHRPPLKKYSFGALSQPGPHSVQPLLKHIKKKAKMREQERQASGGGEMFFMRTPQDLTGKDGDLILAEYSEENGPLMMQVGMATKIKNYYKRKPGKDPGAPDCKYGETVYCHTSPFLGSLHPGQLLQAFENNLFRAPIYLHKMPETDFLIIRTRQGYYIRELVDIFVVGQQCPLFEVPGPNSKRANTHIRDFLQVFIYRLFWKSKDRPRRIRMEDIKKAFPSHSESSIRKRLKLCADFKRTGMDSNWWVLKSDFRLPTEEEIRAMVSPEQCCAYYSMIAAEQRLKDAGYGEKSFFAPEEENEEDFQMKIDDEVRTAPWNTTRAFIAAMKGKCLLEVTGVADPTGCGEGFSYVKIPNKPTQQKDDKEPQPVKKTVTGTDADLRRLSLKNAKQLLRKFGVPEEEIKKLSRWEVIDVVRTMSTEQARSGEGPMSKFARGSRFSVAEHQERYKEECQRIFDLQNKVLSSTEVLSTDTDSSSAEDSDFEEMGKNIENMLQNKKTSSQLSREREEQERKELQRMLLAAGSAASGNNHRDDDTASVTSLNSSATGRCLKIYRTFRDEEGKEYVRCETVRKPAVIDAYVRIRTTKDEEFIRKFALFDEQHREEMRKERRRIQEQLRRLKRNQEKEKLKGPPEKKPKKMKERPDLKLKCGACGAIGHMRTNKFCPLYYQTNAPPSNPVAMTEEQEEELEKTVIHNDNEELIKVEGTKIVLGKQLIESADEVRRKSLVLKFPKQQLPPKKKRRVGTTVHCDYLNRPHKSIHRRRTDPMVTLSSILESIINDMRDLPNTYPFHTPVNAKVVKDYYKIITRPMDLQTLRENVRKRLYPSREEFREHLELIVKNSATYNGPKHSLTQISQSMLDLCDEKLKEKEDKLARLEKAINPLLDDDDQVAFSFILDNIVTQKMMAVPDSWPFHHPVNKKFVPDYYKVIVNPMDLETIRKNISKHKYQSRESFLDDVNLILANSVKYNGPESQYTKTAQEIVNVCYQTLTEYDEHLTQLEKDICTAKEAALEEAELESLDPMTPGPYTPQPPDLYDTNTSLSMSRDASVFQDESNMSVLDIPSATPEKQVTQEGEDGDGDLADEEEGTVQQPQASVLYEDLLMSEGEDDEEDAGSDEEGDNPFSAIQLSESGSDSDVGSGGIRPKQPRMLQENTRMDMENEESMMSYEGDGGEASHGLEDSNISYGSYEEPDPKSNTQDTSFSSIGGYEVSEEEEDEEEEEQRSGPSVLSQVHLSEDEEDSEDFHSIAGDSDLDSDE

[6] = target: Bromodomain adjacent to zinc finger domain protein 2A (Homo sapiens, UniProt Q9UIF9); test: Binding affinity to human partial length BAZ2A (M1792 to L1905 residues) expressed in bacterial expression system by BROMOscan assay
Sequence of Bromodomain adjacent to zinc finger domain protein 2A (Q9UIF9 whole entry, the tested form may be a part): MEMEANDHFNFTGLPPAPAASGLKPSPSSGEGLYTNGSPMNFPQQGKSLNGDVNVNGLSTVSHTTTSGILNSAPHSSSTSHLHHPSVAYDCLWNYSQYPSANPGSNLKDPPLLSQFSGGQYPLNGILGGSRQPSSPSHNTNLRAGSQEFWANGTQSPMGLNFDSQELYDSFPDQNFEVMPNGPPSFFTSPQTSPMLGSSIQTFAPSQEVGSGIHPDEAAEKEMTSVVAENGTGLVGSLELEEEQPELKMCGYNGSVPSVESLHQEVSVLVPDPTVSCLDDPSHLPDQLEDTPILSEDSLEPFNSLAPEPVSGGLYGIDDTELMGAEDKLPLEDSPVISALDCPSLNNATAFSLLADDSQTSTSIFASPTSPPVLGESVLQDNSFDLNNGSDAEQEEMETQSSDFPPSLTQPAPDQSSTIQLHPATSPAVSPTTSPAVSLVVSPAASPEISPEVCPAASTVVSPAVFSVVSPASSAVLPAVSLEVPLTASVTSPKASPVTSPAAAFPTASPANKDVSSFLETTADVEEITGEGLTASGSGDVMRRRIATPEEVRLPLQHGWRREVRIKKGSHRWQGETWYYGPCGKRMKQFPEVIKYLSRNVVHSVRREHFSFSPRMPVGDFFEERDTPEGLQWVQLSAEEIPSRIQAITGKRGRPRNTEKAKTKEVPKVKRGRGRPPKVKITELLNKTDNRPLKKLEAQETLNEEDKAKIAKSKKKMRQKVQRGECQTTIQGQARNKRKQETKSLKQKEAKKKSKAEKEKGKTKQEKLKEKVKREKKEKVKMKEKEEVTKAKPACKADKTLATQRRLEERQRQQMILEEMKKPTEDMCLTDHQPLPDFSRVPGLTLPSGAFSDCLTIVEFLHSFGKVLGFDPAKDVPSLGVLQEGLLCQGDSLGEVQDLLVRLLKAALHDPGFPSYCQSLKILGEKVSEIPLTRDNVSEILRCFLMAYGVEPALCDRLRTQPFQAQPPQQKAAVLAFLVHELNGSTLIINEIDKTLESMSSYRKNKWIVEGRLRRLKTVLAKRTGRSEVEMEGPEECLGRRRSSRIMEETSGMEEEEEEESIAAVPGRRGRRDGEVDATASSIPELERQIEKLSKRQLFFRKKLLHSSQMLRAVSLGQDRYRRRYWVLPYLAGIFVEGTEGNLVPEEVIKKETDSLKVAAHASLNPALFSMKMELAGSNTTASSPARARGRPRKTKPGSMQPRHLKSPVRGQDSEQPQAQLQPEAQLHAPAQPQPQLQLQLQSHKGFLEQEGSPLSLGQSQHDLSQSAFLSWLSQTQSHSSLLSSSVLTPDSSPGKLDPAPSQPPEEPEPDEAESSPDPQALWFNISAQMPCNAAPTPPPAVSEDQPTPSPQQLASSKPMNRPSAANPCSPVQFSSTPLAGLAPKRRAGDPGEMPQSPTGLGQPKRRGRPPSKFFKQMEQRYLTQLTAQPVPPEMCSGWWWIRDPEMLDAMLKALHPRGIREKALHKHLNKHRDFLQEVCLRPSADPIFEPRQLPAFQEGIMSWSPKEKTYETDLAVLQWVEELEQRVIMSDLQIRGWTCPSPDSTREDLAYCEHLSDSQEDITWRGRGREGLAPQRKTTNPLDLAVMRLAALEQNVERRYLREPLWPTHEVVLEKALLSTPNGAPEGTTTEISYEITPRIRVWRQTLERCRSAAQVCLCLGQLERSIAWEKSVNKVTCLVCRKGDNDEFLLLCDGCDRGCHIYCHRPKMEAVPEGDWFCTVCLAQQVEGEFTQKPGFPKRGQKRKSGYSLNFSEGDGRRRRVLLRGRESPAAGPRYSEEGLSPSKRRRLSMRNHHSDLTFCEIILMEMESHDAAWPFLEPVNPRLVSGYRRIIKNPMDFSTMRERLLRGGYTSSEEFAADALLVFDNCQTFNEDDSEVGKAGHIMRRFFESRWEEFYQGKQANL

Kd [1]: 20 µM
Kd [2]: 20 µM
IC50 (THP-1): 0.158 µM
Kd [3]: 0.02 µM
Kd [4]: 15.8 µM
Kd [5]: 0.0501 µM
Kd [6]: 15.8 µM
SMILES: Cc1cc2c(-c3ccco3)cnc(N[C@@H]3CCN(C)C[C@H]3C(=O)NC3CCCCC3)c2[nH]c1=O [GSK789]
Activity (B cell): Active
